Results taken from PMC4838304, “Effective Design of Multifunctional Peptides by Combining Compatible Functions” (PLoS Computational Biology, 2016).
Ends that are not written are not given here.

Key:
pGREG546 plasmid = experiment: Electrophoretic mobility shift assay (EMSA), DNA retention; type: binding; settings: 1μg pGREG546, DNA to peptide charge ratio 1:1 or 1:4, 30 minutes
Text: To test the ability of the designed peptides to bind nucleic acids, we evaluated by electrophoretic mobility shift assays (EMSAs) the retention of DNA by the designed peptides. Each EMSA was executed with peptide quantities that were multiples of the DNA to peptide charge ratio. A DNA to peptide charge ratio of 1:1 is represented by the number of positive charges of the peptide required to neutralize the negative charges of the DNA backbone. Retention in the gel is an indirect measure of the fraction of positive charges within the peptide participating in binding the DNA molecules. All EMSA assays were performed using the yeast plasmid pGREG546. As negative control, pGREG546 without any peptide was used, and as positive control the known DNA-binding cell penetrating peptide MPG was used. […] However, retention in the gel was observed when NLS was joined to any larger peptide fragment.
Fig 4 DNA binding. (A) Quantification of DNA retention obtained from three independent electrophoretic mobility shift assays. All measurements are shown and horizontal bars denote the sample mean. Representative gels are shown in (B-C).
1μg of pGREG546 plasmid was pre-incubated with the required quantity of each peptide to result in a 1:1 or 1:4 peptide charge to DNA charge ratio. Samples were incubated for 30 minutes and loaded on a 1% Agarose gel in SB buffer. DNA affinity was quantified by measuring the mean pixel intensity of the DNA bands with Fiji (http://fiji.sc) and normalizing to the intensity range between an empty spot on the gel and the intensity of the pGREG546 plasmid without any added peptide. Analysis scripts for the EMSA experiments as well as the raw data can be found with the distributed source code at http://bis.ifc.unam.mx/software/dcf.

[1] = test system: pheromone-signaling pathway (Fus1-eGFP) in MATa cells; experiment: Pheromone signaling assay, Fus1-GFP expression and shmoo phenotype; type: cell-based, Saccharomyces cerevisiae; settings: BY4741 fus1::eGFP, 60 μM peptide (20 μM for α-factor), 3h
Procedure: Finally, the activity of the α-factor embedded in the peptides was evaluated by activation of the pheromone-signaling pathway in MATa cells of S. cerevisiae. We monitored the pheromone signaling activity by following the expression of the GFP-labeled Fus1 protein. Fus1 is among the proteins with the highest pheromone-induced expression and is required for cell-cell fusion during mating. […] The observed phenotype was consistent with the activation of signaling showing a mating protrusion, often called “shmoo” as well as the absence of budding due to inhibition of the Cdc28 cyclin [35, 36].
Fig 5 Pheromone activity. The pheromone signaling pathway is confirmed by the expression of Fus1-GFP, characteristic “shmoo” phenotype and the absence of budding observed in differential interference contrast (DIC) bright field. Concentrations were 20 μM for α-factor and 60 μM for all other peptides. The negative control was water without any peptide.
Pheromone signaling induction in Saccharomyces cerevisiae was measured by induction of eGFP fluorescence in a BY4741 strain containing the Fus1-eGFP construct in place of the wild type Fus1 (MATa his3Δ1 leu2Δ0 met15Δ0 ura3Δ0 fus1::eGFP HIS3MX6, obtained from the yeast GFP collection). The BY4741 fus1::eGFP strain was grown overnight in YPD to mid-log phase and diluted to 10^6 cells/mL. Samples were treated with the respective peptide concentrations and incubated for 3h before mixing 1:1 with low-diffusivity agarose suspended on a covered glass slide. Images were taken with an Olympus FV10 confocal microscope using a 60x objective with […]. Images were analyzed using Fiji (www.fiji.sc). The only modifications applied to the images were separation of the bright field and GFP channels, adjustment of brightness and contrast to 50% and addition of scale bars.

BY4741 yeast cells = experiment: Internalization assay in yeast, confocal microscopy; type: cell-based, Saccharomyces cerevisiae; settings: TAMRA-labeled versions, 60 μM, BY4741, pictures at 0, 10 and 20 min
Text: We first evaluated whether the designed peptides retained the activity of the templates. The presence of the NLS sequence may locate peptides in the nuclei of cells; for that to happen first the peptides have to be internalized. […] For yeast cells, confocal microscopy was used to evaluate CPP activity in our peptides (see Fig 2).
Fig 2 Designed peptides internalized into yeast cells. (A-F) Internalization assays in BY4741 yeast cells for peptide controls where Arg and Lys residues were replaced by Glu residues (A-C) and the original peptides (D-F). All peptides were used at 60 μM (final concentration) and labeled with the TAMRA fluorophore (see Table 1 and Materials and Methods for further details).
All 6 fluorogenic peptides (TAMRA-peptides, see Table 1) were prepared to 600μM in water as a 10X stock solution. Although all the peptides were apparently soluble in water, they all formed aggregates under the microscope. […] These samples were observed under a multi-photon confocal microscope (Olympus FV1000) and pictures were recorded at 0, 10 and 20 min after the peptide addition. […] Bright field images were chosen from the in-focus z-stack, whereas TAMRA images denote the average fluorescence across the entire z-stack to obtain the fluorescence inside the entire cell volume. Images were analyzed using Fiji (http://fiji.sc/Downloads#Fiji).

[2] = Circular dichroism, secondary structure content (CONTIN/LL); type: physicochemical; settings: for Secondary Structure Random coil / Secondary Structure α-Helix / Secondary Structure β-Sheet: 0.3mg in 1mL, 20°C, far-UV CD, CONTIN/LL
Procedure: We studied the structural properties of the peptides in vitro, using circular dichroism (see Materials and Methods). The far-UV CD spectra for NLS-CE, NLS-α and NLS-α-CE in water matched the characteristics of a random coil conformation.
Circular dichroism spectra were recorded on a ChirascanTM CD Spectrometer (Applied Photophysics, UK) equipped with a peltier temperature controller. 0.3mg of each peptide was dissolved in 1mL of water or 50% aqueous trifluoroethanol and placed in quartz cuvettes of 0.1cm path length. Far-UV CD spectra were collected from 185 to 250 nm at 20°C. Spectra were averaged over 5 scans and the averaged blank spectra of solvents were subtracted. Ellipticity is reported as mean residue molar ellipticity and recorded in terms of molar elipticity [θ] (deg cm^2 dmol^−1). CONTIN/LL within the CDPro analysis software program was used to estimate the secondary structure content of the peptides.

[3] = test system: Escherichia coli strain DH5α; type: cell-based; settings: 12 h

Row | Sequence | DNA binding in EMSA, in words (pGREG546 plasmid) | pheromone signaling activity (Fus1-GFP expression, phenotype) [1] | internalization into yeast cells (BY4741 yeast cells) | Secondary Structure Random coil ([2]; 50% TFE) [%] | Secondary Structure α-Helix ([2]; 50% TFE) [%] | Secondary Structure β-Sheet ([2]; 50% TFE) [%] | Secondary Structure Random coil ([2]; water) [%] | Secondary Structure α-Helix ([2]; water) [%] | Secondary Structure β-Sheet ([2]; water) [%] | E. coli MIC for 100% inhibition [3] [µM] | aggregation suggested by decrease in negative ellipticity ([2]; 50% TFE, CD spectra)
1 | KRRWRFVWMNPKKKRKVPPWPYLLWWHWLQLKPGQPMY [chimera] | effective DNA-binding activity | partial shmoo-like phenotypes | quickly accumulate in the cell membrane and inside the yeast cells | 48 | 24 | 28 | 59 | 8 | 33 | 22 | 
2 | FRKWRRKPKKKRKVWWRKVKRRWHWLQLKPGQPMY [NLS-α-CE] | effective DNA-binding activity | partial shmoo-like phenotypes | quickly accumulate in the cell membrane and inside the yeast cells | 59 | 10 | 31 | 64 | 6 | 30 | 2 | TFE promoted aggregation of the peptides
